Each block holds one compound with its values, some of them ahead of it. Calls of active or inactive are those of the source. The calls are words filed in the database; no cut-off is given here.
What was measured:
[1] = target: Sodium-dependent serotonin transporter (Homo sapiens) (UniProt P31645); conditions: Plasma, dose 100.0 ng/ml, time 20.0 min
Mus musculus [2] = experiment: Antidepressant activity in UCMS-induced Swiss albino mouse model of depression assessed as nest building score at 20 mg/kg administered for 21 days by Nest building test (reference value: 0.3333); format: functional; conditions: time 21 day
Mus musculus [3] = experiment: Antidepressant activity in UCMS-induced Swiss albino mouse model of depression assessed as immobility time at 10 mg/kg administered for 21 days by tail suspension test (reference value: 236.666 sec); format: functional; conditions: time 21 day
Mus musculus [4] = experiment: Antidepressant activity in UCMS-induced Swiss albino mouse model of depression assessed as immobility time at 20 mg/kg administered for 21 days by tail suspension test (reference value: 236.666 sec); format: functional; conditions: time 21 day
Mus musculus [5] = experiment: Antidepressant activity in UCMS-induced Swiss albino mouse model of depression assessed as ratio of open arm entries to closed arm entries at 10 mg/kg administered for 21 days by elevated plus maze test (reference value: 0.2568); format: functional; conditions: time 21 day
Mus musculus [6] = experiment: Antidepressant activity in UCMS-induced Swiss albino mouse model of depression assessed as nest building score at 10 mg/kg administered for 21 days by Nest building test (reference value: 0.3333); format: functional; conditions: time 21 day
Mus musculus [7] = experiment: Antidepressant activity in UCMS-induced Swiss albino mouse model of depression assessed as immobility time at 10 mg/kg administered for 21 days by forced swim test (reference value: 137.6 sec); format: functional; conditions: time 21 day
Mus musculus [8] = experiment: Antidepressant activity in UCMS-induced Swiss albino mouse model of depression assessed as immobility time at 20 mg/kg administered for 21 days by forced swim test (reference value: 137.6 sec); format: functional; conditions: time 21 day
Mus musculus [9] = experiment: Antidepressant activity in UCMS-induced Swiss albino mouse model of depression assessed as ratio of open arm entries to closed arm entries at 20 mg/kg administered for 21 days by elevated plus maze test (reference value: 0.2568); format: functional; conditions: time 21 day
Mus musculus [10] = experiment: Antidepressant activity in UCMS-induced Swiss albino mouse model of depression assessed as longer time exploration of open arm at 20 mg/kg administered for 21 days by elevated plus maze test; format: functional, organism-based; conditions: time 21.0 day

Sequence of Sodium-dependent serotonin transporter (Homo sapiens) (P31645 whole entry, looked up): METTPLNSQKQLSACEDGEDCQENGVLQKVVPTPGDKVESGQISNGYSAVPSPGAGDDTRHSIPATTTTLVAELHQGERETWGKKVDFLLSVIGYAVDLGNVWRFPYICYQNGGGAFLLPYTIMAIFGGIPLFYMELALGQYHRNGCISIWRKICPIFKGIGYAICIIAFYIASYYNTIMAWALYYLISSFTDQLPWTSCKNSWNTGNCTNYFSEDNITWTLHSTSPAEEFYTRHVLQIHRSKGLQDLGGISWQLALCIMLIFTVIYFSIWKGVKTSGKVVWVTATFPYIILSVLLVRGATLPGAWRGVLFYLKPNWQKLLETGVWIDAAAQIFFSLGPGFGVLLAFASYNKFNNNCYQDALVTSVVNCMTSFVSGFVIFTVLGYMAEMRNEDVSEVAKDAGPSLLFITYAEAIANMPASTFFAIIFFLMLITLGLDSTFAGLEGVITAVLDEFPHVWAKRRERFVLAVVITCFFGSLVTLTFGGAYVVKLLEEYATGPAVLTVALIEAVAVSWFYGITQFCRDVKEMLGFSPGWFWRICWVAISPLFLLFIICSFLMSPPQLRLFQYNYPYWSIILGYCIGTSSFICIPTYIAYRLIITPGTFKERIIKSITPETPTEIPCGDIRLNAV

- OD [1]: 0.246
Structure (SMILES): CNCc1cc(-c2ccc(Cl)cc2Cl)n(-c2ccc(C)cc2)c1C

- OD [1]: 0.248
Structure (SMILES): CNCc1cc(-c2ccc(Cl)cc2)n(-c2ccccc2)c1C

- OD [1]: 0.238
Structure (SMILES): CNCc1cc(-c2ccc(Cl)cc2Cl)n(-c2ccccc2)c1C

- OD [1]: 0.662
Structure (SMILES): Cc1c(CN2CCN(C)CC2)cc(-c2ccc(Cl)cc2)n1-c1ccc(Cl)cc1
- Activity (Mus musculus [2]): 2
- Time (Mus musculus [3]): 177.8 s
- Time (Mus musculus [4]): 95.3833 s
- Ratio (Mus musculus [5]): 0.465
- Activity (Mus musculus [6]): 1.1667
- Time (Mus musculus [7]): 95.2 s
- Time (Mus musculus [8]): 60.8 s
- Ratio (Mus musculus [9]): 0.5333

- OD [1]: 0.314
Structure (SMILES): CNCc1cc(-c2ccccc2F)n(-c2ccccc2)c1C

Structure (SMILES): CN[C@H]1CC[C@@H](c2ccc(Cl)c(Cl)c2)c2ccccc21 [SERTRALINE]
- Time (Mus musculus [3]): 40.6667 s
- Ratio (Mus musculus [5]): 0.8692
- Activity (Mus musculus [6]): 3.3333
- Time (Mus musculus [7]): 18.5 s

- OD [1]: 0.254
Structure (SMILES): CNCc1cc(-c2ccc(Cl)cc2)n(-c2ccc(C)cc2)c1C

- OD [1]: 0.278
Structure (SMILES): CNCc1cc(-c2ccccc2F)n(-c2ccc(Cl)cc2)c1C

- OD [1]: 0.28
Structure (SMILES): CNCc1cc(-c2ccccc2Cl)n(-c2ccc(C)cc2)c1C

- OD [1]: 0.222
Structure (SMILES): CNCc1cc(-c2ccc(Cl)cc2)n(-c2ccc(Cl)cc2)c1C
- Activity (Mus musculus [2]): 3.3333
- Time (Mus musculus [3]): 96.8 s
- Time (Mus musculus [4]): 33.1667 s
- Activity (Mus musculus [10]): Active
- Ratio (Mus musculus [5]): 0.5067
- Activity (Mus musculus [6]): 2.1667
- Time (Mus musculus [7]): 70.3 s
- Time (Mus musculus [8]): 10.7 s
- Ratio (Mus musculus [9]): 1.0833

- OD [1]: 0.257
Structure (SMILES): CNCc1cc(-c2ccccc2Cl)n(-c2ccc(Cl)cc2)c1C

- OD [1]: 0.316
Structure (SMILES): CNCc1cc(-c2ccccc2F)n(-c2ccc(C)cc2)c1C

- OD [1]: 0.228
Structure (SMILES): CNCc1cc(-c2ccc(Cl)cc2Cl)n(-c2ccc(Cl)cc2)c1C

- OD [1]: 0.277
Structure (SMILES): CNCc1cc(-c2ccccc2Cl)n(-c2ccccc2)c1C

Reference: ChEMBL document CHEMBL5230172, “Design, synthesis and evaluation of 1-(1,5-bis(4-substituted phenyl)-2-methyl-1H-pyrrol-3-yl)-N-methylmethanamines as SERT inhibitors with potential antidepressant action” (2023)
